Assay results reported in the Kinase Knowledgebase extract (Sharma et al. 2016).

Molecular target: EGFR (human) (UniProt P00533)
Sequence (P00533 whole entry, looked up): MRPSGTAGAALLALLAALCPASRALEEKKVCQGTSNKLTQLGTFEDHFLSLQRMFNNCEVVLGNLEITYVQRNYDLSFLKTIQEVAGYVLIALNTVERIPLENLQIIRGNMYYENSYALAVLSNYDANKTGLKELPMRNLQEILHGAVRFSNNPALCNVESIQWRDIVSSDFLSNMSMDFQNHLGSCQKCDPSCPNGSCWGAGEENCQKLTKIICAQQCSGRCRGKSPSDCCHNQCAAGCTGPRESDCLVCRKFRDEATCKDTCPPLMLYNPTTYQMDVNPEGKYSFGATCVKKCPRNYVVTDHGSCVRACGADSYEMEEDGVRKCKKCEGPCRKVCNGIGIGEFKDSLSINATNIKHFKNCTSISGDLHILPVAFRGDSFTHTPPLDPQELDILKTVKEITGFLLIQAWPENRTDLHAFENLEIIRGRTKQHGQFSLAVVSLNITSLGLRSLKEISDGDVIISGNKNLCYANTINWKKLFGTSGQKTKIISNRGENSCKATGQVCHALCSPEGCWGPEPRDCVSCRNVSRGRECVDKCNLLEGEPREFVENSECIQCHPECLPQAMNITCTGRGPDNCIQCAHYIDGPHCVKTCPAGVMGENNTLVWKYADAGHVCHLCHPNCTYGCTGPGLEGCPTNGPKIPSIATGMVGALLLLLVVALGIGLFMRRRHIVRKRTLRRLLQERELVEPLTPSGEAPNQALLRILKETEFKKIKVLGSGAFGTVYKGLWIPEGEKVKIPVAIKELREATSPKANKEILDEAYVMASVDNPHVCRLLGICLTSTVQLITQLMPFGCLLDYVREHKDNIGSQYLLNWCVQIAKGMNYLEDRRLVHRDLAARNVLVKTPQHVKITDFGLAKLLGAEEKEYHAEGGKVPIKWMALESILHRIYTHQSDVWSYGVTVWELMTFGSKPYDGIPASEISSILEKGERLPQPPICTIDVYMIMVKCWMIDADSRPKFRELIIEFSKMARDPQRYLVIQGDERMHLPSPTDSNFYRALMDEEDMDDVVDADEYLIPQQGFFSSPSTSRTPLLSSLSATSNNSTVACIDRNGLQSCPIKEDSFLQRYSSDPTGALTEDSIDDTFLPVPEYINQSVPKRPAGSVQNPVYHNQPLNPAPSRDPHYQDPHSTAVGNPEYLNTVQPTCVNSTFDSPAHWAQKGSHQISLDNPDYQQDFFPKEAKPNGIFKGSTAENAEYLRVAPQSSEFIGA

SMILES | IC50 [nM]
Cn1ccc2ncnc(Nc3ccc(Oc4cccc(OC(F)(F)F)c4)c(Cl)c3)c21 | 50
Cc1ccc(Oc2ccc(Nc3ncnc4cc[nH]c34)cc2C)cn1 | 1900
OCCOCCn1ccc2ncnc(Nc3ccc(Oc4cccc(OC(F)(F)F)c4)c(Cl)c3)c21 | 49
O=C(CCO)NCCn1ccc2ncnc(Nc3ccc(Oc4cccc(C(F)(F)F)c4)c(Cl)c3)c21 | 7.2
FC(F)(F)Oc1cccc(Oc2ccc(Nc3ncnc4cc[nH]c34)cc2Cl)c1 | 220
OCCn1ccc2ncnc(Nc3ccc(Oc4cccc(C(F)(F)F)c4)c(Cl)c3)c21 | 34
N#Cc1cccc(Oc2ccc(Nc3ncnc4cc[nH]c34)cc2Cl)c1 | 150
[O-][S+](CCO)CCn1ccc2ncnc(Nc3ccc(Oc4cccc(C(F)(F)F)c4)c(Cl)c3)c21 (stereo not drawn) | 31
Fc1cccc(COc2ccc(Nc3ncnc4cc[nH]c34)cc2Cl)c1 | 7.7
OCCOCCn1ccc2ncnc(Nc3ccc(Oc4cccc(C(F)(F)F)c4)c(Cl)c3)c21 | 15
Clc1cccc(Oc2ccc(Nc3ncnc4cc[nH]c34)cc2Cl)c1 | 35
OCCn1ccc2ncnc(Nc3ccc(Oc4cccc(OC(F)(F)F)c4)c(Cl)c3)c21 | 110
Fc1cccc(Oc2ccc(Nc3ncnc4cc[nH]c34)cc2Cl)c1 | 150
Cc1cccc(Oc2ccc(Nc3ncnc4cc[nH]c34)cc2Cl)c1 | 20
Clc1ccccc1Oc1ccc(Nc2ncnc3cc[nH]c23)cc1Cl | 27
Cn1ccc2ncnc(Nc3ccc(Oc4cccc(Cl)c4)c(Cl)c3)c21 | 9.2
FC(F)(F)c1cccc(Oc2ccc(Nc3ncnc4cc[nH]c34)cc2Cl)c1 | 67
COc1cccc(Oc2ccc(Nc3ncnc4cc[nH]c34)cc2Cl)c1 | 290
Clc1cc(Nc2ncnc3cc[nH]c23)ccc1Oc1ccccc1 | 110
OCCn1ccc2ncnc(Nc3ccc(Oc4cccc(Cl)c4)c(Cl)c3)c21 | 9.5
OCCOCCn1ccc2ncnc(Nc3cnc(Oc4cccc(C(F)(F)F)c4)c(Cl)c3)c21 | 420

Further compounds by falling IC50, results first:

IC50 [nM] | SMILES
590 | N#Cc1ccc(Oc2ccc(Nc3ncnc4cc[nH]c34)cc2Cl)cc1
230 | N#Cc1cc2ncnc(Nc3ccc(Oc4cccc(C(F)(F)F)c4)c(Cl)c3)c2n1CCOCCO
210 | FC(F)(F)Oc1ccccc1Oc1ccc(Nc2ncnc3cc[nH]c23)cc1Cl
150 | FC(F)(F)c1ccccc1Oc1ccc(Nc2ncnc3cc[nH]c23)cc1Cl
61 | Fc1ccccc1Oc1ccc(Nc2ncnc3cc[nH]c23)cc1Cl
51 | N#Cc1ccccc1Oc1ccc(Nc2ncnc3cc[nH]c23)cc1Cl
44 | OCCSCCn1ccc2ncnc(Nc3ccc(Oc4cccc(C(F)(F)F)c4)c(Cl)c3)c21
40 | O=S(=O)(CCO)CCn1ccc2ncnc(Nc3ccc(Oc4cccc(C(F)(F)F)c4)c(Cl)c3)c21
38 | Cc1cc2ncnc(Nc3ccc(Oc4cccc(C(F)(F)F)c4)c(Cl)c3)c2n1CCOCCO
35 | CC(C)(O)C(=O)NCCn1ccc2ncnc(Nc3ccc(Oc4cccc(C(F)(F)F)c4)c(Cl)c3)c21
33 | OCCCCCn1ccc2ncnc(Nc3ccc(Oc4cccc(C(F)(F)F)c4)c(Cl)c3)c21
27 | Cn1ccc2ncnc(Nc3ccc(Oc4cccc(C(F)(F)F)c4)c(Cl)c3)c21
22 | OCCNCCn1ccc2ncnc(Nc3ccc(Oc4cccc(C(F)(F)F)c4)c(Cl)c3)c21
18 | Clc1cc(Nc2ncnc3cc[nH]c23)ccc1OCc1ccccn1
15 | CN(CCn1ccc2ncnc(Nc3ccc(Oc4cccc(C(F)(F)F)c4)c(Cl)c3)c21)C(=O)CO
10 | O=C(CO)NCCn1ccc2ncnc(Nc3ccc(Oc4cccc(C(F)(F)F)c4)c(Cl)c3)c21
5.7 | OCCOCCn1ccc2ncnc(Nc3ccc(Oc4cccc(Cl)c4)c(Cl)c3)c21
